Here are results for one compound from US20200016200A1, “MODULATING CYTOTOXIC CELL LYTIC GRANULE POSITIONING TO PROMOTE DIFFUSE KILLING IN CELLULAR THERAPIES” (Baylor College of Medicine, priority 2016, published 2020).

One experiment has as its system GD2 CAR-bearing T cells. Kind of experiment: Flow cytometry-based cytotoxicity assay, 48 h, bystander killing. Type of experiment: cell-based. The following applies: ciliobrevin D 90 μM, vs DMSO. The procedure: FIG. 23. Bystander killing with ciliobrevin D in the presence of GD2 CAR-bearing T cells. Flow cytometry-based cytotoxicity assay of GD2 CAR-bearing T cells treated with ciliobrevin D (90 μM) or DMSO control. BV173 cells were used as non-susceptible bystander cells to measure the degree of non-specific killing (Left). Daoy-CD19 cells were used as activating target cells (Right). After 48 h incubation, percent cell lysis and total cell number were measured using SYTOX Blue viability dye and flow cytometer cell counting beads, respectively. […] The non-specific lysis of BV173 cells increased after ciliobrevin D treatment while specific lysis of Daoy-CD19 cells was not affected.
Similarly, compared to DMSO, ciliobrevin D-treated CD19 CAR NK cells lyse approximately 24%, 39% and 40% more bystander cells at the concentration of 12.5, 25 and 50 μM, respectively (FIG. 22). […] FIG. 23 and FIG. 24 are time-lapse images of videos of control ([…]) and ciliobrevin D-treated ([…]) CD19 CAR T cells. […] In the control group, however, lytic granules converge immediately upon interacting with the target cell and remain tightly clustered until target is killed by the CD19 CAR T cell as indicated by uptake of the SYTOX Blue viability dye.
Background: In flow cytometry, cells or beads pass a laser one at a time.

For another experiment, the system named is CD19 CAR-bearing T cells. Kind of experiment: Live cell confocal microscopy of lytic granule positioning (LysoTracker Red). Conditions: for stimulation-induced lytic granule convergence: ciliobrevin D 50 μM vs DMSO, straight out of culture or 0.5 h post cytokine (IL-7, IL-15) re-addition. Type of experiment: cell-based. The procedure:
FIG. 17. […] Live cell confocal microscopy of CD19 CAR-bearing T cells untreated or treated with ciliobrevin D (30 and 100 μM). Lytic granule positioning was tracked using LysoTracker Red. […] Quantitative analyses of lytic granule distance from the MTOC are shown as a feature of the degree of granule convergence in CD19 CAR-bearing T cells.
FIG. 18. […] Live cell confocal microscopy of CD19 CAR-bearing T cells treated with DMSO or ciliobrevin D (50 μM). Lytic granule positioning was tracked using LysoTracker Red. […] The culture medium for CD19 CAR T cells contains IL-7 and IL-15. […] Quantitative analyses of lytic granule distance from the MTOC are shown as a feature of the degree of granule convergence in CD19 CAR-bearing T cells.
Specifically, the inventors have shown convergence in CD19 CAR T cells, CD19 CAR NK cells, PSCA CAR T cells, GD2 CAR NKT cells, HER2 CART cells, and glypican CAR T cells (FIG. 15A). Using a measurement of mean granule distance from the MTOC, CAR cells have varying degrees of converged lytic granules (FIG. 15B).

For another experiment, the system named is YTS cells. Kind of experiment: Standard 4-hour 51Cr cytotoxicity assay. Type of experiment: cell-based, human. The following applies: ciliobrevin D 100 μM vs DMSO. The procedure:
(§1) FIGS. 13A-13E. The effect of ciliobrevin D on degranulation and the increase of bystander killing by NK cells. Flow cytometry-based degranulation assay of NK cells treated with ciliobrevin D or DMSO as vehicle control. 721.221 cells were used as targets for YTS cells and K562 cells were used as targets for NK92 and eNK cells. DMSO or ciliobrevin D-treated NK cells were mixed with their respective target cells and co-cultured at 37° C. for 2 hours in the presence of anti-CD107a antibody, GolgiStop (BD) and analyzed using flow cytometry. Numbers in the representative flow cytometry plots indicate the percentage of CD107a positive eNK (13A), YTS (13B), or NK92 (13C) cells. Standard 4-hour 51Cr cytotoxicity assay of NK cells treated with ciliobrevin D (100 μM) or DMSO control. NK resistant Raji cells were used as innocent bystander cells. […] Bystander killing of Raji cells by YTS (13D, red) and NK92 (13E, red) cells both increased with ciliobrevin D treatment. Representative experiments from three independent experiments for YTS and NK92 cells were shown.
(§2) Because directed degranulation with converged granules promoted killing efficiency, ciliobrevin D was used to physically prevent convergence in a cell that had received a convergence signal. It was considered that this would allow us to abrogate the killing efficiency benefit imparted by lytic granule convergence. In order to measure killing of both the target and bystander cells in a single experiment, flow cytometry-based cytotoxicity assays were performed, wherein each cell line was labeled with a unique fluorescent dye in the presence of media containing SYTOX Blue viability indicator dye. […] The viability of YTS ([…]), NK92 (FIG. 14E, 14H) and eNK (FIG. 14F, 14I) was not affected by DMSO or ciliobrevin D treatments. […] To ask if it promoted more collateral damage by NK cells 51Cr-labeled Raji cells were added (to serve as innocent bystanders) along with unlabeled 721.221 or K562 target cells. […] YTS or NK92 cells co-cultured with 51Cr-labeled Raji cells in the absence of 721.221 or K562 were unable to kill Raji cells (FIG. 14J). […] Convergence therefore serves to protect innocent bystander cells in complex cellular environments.
(§3) Standard 51Cr-release assays were performed as previously described (Orange et al., 2011). Where indicated, 51Cr51-labeled target or “bystander” cells were mixed with unlabeled target or “bystander” cells to test the indirect lysis of targets. For ADCC, Raji cells were incubated with 20 μg/ml of rituximab in complete R10 medium for 20 min at 37° C., and washed three times before adding to eNK cells.
(§4) Where applicable, YTS, NK92 and eNK cells were pretreated with […] ciliobrevin D (Millipore) for 30 min then washed. […]

In another experiment the test system is NK92 cells. Kind of experiment: Standard 4-hour 51Cr cytotoxicity assay. Type of experiment: cell-based, human. The following applies: ciliobrevin D 100 μM vs DMSO. The procedure:
as §1, §2, §3, §4

“Also recorded” adds a separate entry of the source.

As for `N#CC(C(=O)c1ccc(Cl)cc1Cl)=C1NC(=O)c2ccc(Cl)cc2N1` [ciliobrevin D, 2-(7-chloro-4-oxo-3,4-dihydroquinazolin-2(1H)-ylidene)-3-(2,4-dichlorophenyl)-3-oxopropanenitrile], the “specific lysis of Daoy-CD19 target cells” value in the experiment with GD2 CAR-bearing T cells (48 h incubation) is given as “remains similar to the DMSO control; also recorded: not affected”. Further, the “decrease of total number of BV173 (bystander) cells” value in the experiment with GD2 CAR-bearing T cells (after 48 h incubation) is recorded as about 20%. Besides, in the experiment on GD2 CAR-bearing T cells (after 48 h incubation), the “total number of Daoy-CD19 (target) cells” value is “does not change; also recorded: remained similar to the DMSO control”. The entries for the “stimulation-induced lytic granule convergence” value with CD19 CAR-bearing T cells and with CD19 CAR-bearing T cells (listed as Ciliobrevin D) were “blocks stimulation-induced convergence” and “dispersed lytic granules”, respectively. Besides, the “lytic granule positioning (granule distance from the MTOC)” value in the experiment on CD19 CAR-bearing T cells (ciliobrevin D 30 and 100 μM vs untreated) is “can disperse lytic granules; also recorded: dispersed lytic granules”. For the same compound, the “lysis of susceptible target cells (51Cr release)” value with YTS cells (YTS against 721.221) is given as “did not substantively alter total killing; also recorded: slightly increased”; in the experiment with NK92 cells (NK92 against K562), “did not substantively alter total killing; also recorded: not affected”. The “non-specific lysis (bystander killing) of 51Cr-labeled Raji cells” value in the experiment on YTS cells (YTS with unlabeled 721.221 targets) and in the experiment on NK92 cells (NK92 with unlabeled K562 targets) was “more non-specific lysis; also recorded: increased” throughout.
